Results published in the NIST ThermoML archive (doi:10.1016/j.tca.2014.05.014).

What was measured:
[1] = 101 kPa, Liquid, Vibrating tube method
[2] = mn = molality of the nth substance listed, in mol/kg; details: 101 kPa, Liquid; for speed of sound: Frequency=3 MHz, Sing-around technique in a fixed-path interferometer; for mass density: Vibrating tube method

O [water]
[1]
Details | mass density [kg/m3]
288.15 K | 999.591
293.15 K | 998.551
298.15 K | 997.255
303.15 K | 995.775
308.15 K | 994.329

OC[C@H]1O[C@@](CO)(O[C@H]2O[C@H](CO)[C@@H](O)[C@H](O)[C@H]2O)[C@@H](O)[C@@H]1O [D-sucrose] + O
[2]
Details | mass density, 288.15 K [kg/m3] | mass density, 293.15 K [kg/m3] | mass density, 298.15 K [kg/m3] | mass density, 303.15 K [kg/m3] | mass density, 308.15 K [kg/m3] | speed of sound, 288.15 K [m/s] | speed of sound, 293.15 K [m/s] | speed of sound, 298.15 K [m/s] | speed of sound, 303.15 K [m/s] | speed of sound, 308.15 K [m/s]
m1 = 0.05 | 1006.43 | 1005.42 | 1004.16 | 1002.72 | 1001.27 | 1471.5 | 1487.4 | 1501.4 | 1513.5 | 1523.7
m1 = 0.15 | 1019 | 1017.99 | 1016.73 | 1015.24 | 1013.54 | 1481 | 1496.3 | 1509.9 | 1521.7 | 1531.8
m1 = 0.25 | 1030.99 | 1029.9 | 1028.58 | 1026.97 | 1025.28 | 1490.7 | 1505.7 | 1518.9 | 1530.3 | 1539.9
m1 = 0.35 | 1042.86 | 1041.71 | 1040.32 | 1038.71 | 1036.92 | 1500.5 | 1515 | 1527.7 | 1538.7 | 1548.2
